± gives the expanded uncertainty stated by the source.
Legend:
[1] = Crystal; DTA
[2] = Molar enthalpy of transition or fusion; details: Crystal; DSC
[3] = molar heat capacity at constant pressure; details: 298.15 K; 101.33 kPa; Liquid; Small sample (50 mg) DSC

| Normal melting temperature [1] | Molar enthalpy of transition or fusion [2] | molar heat capacity at constant pressure [3] | Compound |
| --- | --- | --- | --- |
| 189.92 ± 0.39 °C | 6.77 ± 0.155 kcal/mol | 179.54 ± 8.5 J/K/mol | NS(=O)(=O)c1ccccc1[N+](=O)[O-] [2-nitrobenzenesulfonamide] |
| 164.00 ± 0.39 °C | 7.52 ± 0.177 kcal/mol | 199.96 ± 8.5 J/K/mol | NS(=O)(=O)c1cccc([N+](=O)[O-])c1 [3-nitrobenzenesulfonamide] |
| 180.46 ± 0.39 °C | 7.12 ± 0.155 kcal/mol | 219.98 ± 13 J/K/mol | NS(=O)(=O)c1ccc([N+](=O)[O-])cc1 [4-nitrobenzenesulfonamide] |

Reference: the NIST ThermoML archive (doi:10.1016/j.jct.2009.10.003)
